These are literature values, as cited in patent US5217965A, “Stabilized solid dosage forms of choline metal carboxymethylcellulose salicylate compositions” (Euroceltique, S.A., priority 1991, dated 1993).

For this series the following is noted: background.

As to `C[N+](C)(C)CCO.O=C([O-])c1ccccc1O` [Choline salicylate], the Hygroscopicity result is “highly hygroscopic”.
